From PubChem BioAssay AID274 (DTP/NCI, 2004)
Inconclusive results and toxic doses are left out. How the source made its calls: active means survival T/C of 150% or more; inactive means T/C below 125% in these data.

Tested on: BDF1 mice, Lewis lung carcinoma iv, survival T/C
Test: NCI In Vivo Anticancer Drug Screen. Data for tumor model Lewis Lung Carcinoma (intravenous) in B6D2F1 (BDF1) mice
Details: endpoint: median survival time, schedule: Q01DX009 (ip), higher = longer survival
Procedure: The antitumor activity of compounds was measured in mice bearing transplantable tumors. Survival or tumor size were measured and the results are expressed as the measurement made in the treated group (T) divided by the measurement made in the vehicle treated control group (C). The tumor model used in this assay is Lewis Lung Carcinoma (intravenous) in B6D2F1 (BDF1) mice

[1] = dose: 25.0 mg/kg/injection, vehicle: saline
[2] = dose: 100.0 mg/kg/injection, vehicle: saline
[3] = dose: 1.0 mg/kg/injection, vehicle: saline
[4] = dose: 2.0 mg/kg/injection, vehicle: saline
[5] = dose: 12.5 mg/kg/injection, vehicle: saline
[6] = dose: 50.0 mg/kg/injection, vehicle: saline
[7] = dose: 200.0 mg/kg/injection, vehicle: saline
[8] = dose: 12.5 mg/kg/injection, vehicle: saline with Tween-80

Measured: T/C

N=c1ccn2c(n1)OC1C(O)C(CO)OC12 (centres undefined)
inactive: [1] 104 % of control | dose: 37.5 mg/kg/injection, vehicle: saline 108 % of control | dose: 75.0 mg/kg/injection, vehicle: saline 106 % of control | [2] 112 % of control | dose: 150.0 mg/kg/injection, vehicle: saline 119 % of control | dose: 300.0 mg/kg/injection, vehicle: saline 104 % of control | dose: 600.0 mg/kg/injection, vehicle: saline 92 % of control

Cc1c(N)nc([C@H](CC(N)=O)NC[C@H](N)C(N)=O)nc1C(=O)N[C@H](C(=O)N[C@H](C)[C@@H](O)CC(=O)N[C@H](C(=O)NC(O[C@@H]1O[C@@H](C)[C@@H](N)[C@@H](O)[C@H]1O)C(O)c1nc(-c2nc(C(=O)NCCCCN)cs2)cs1)[C@@H](C)O)[C@@H](O[C@@H]1O[C@@H](CO)[C@@H](O)[C@H](O)[C@@H]1O[C@H]1O[C@H](CO)[C@@H](O)[C@H](OC(N)=O)[C@@H]1O)c1c[nH]cn1 (some centres undefined)
inactive: [3] 109 % of control | [4] 114 % of control

c1ccc(CCN2CCC(CCc3c[nH]c4ccccc34)CC2)cc1
inactive: [5] 100 % of control | [1] 104 % of control | [6] 116 % of control

c1cc2n(n1)CCN2
inactive: [6] 105 % of control | [2] 104 % of control | [7] 86 % of control

O=C1C2(Cl)C3(Cl)C4(Cl)C(Cl)(Cl)C5(Cl)[C@]3(Cl)C1(Cl)[C@]5(Cl)C24Cl (some centres undefined)
inactive: dose: 3.12 mg/kg/injection, vehicle: saline with Tween-80 110 % of control | dose: 6.25 mg/kg/injection, vehicle: saline with Tween-80 95 % of control | [8] 122 % of control
active: dose: 1.56 mg/kg/injection, vehicle: saline with Tween-80 301 % of control

COc1ccc(-c2csc(=[N+]3CCCCC3)s2)cc1
inactive: dose: 1.56 mg/kg/injection, vehicle: water 94 % of control | dose: 3.12 mg/kg/injection, vehicle: water 101 % of control | dose: 6.25 mg/kg/injection, vehicle: water 100 % of control | dose: 12.5 mg/kg/injection, vehicle: water 99 % of control | dose: 25.0 mg/kg/injection, vehicle: water 108 % of control

CC1OC(O[C@H]2/C=C/C=C/C=C/C=C/C=C/C=C/C=C/[C@H](C)[C@@H](O)[C@@H](C)[C@H](C)OC(=O)C[C@H](O)C[C@H](O)CC[C@@H](O)[C@H](O)C[C@H](O)C[C@]3(O)C[C@H](O)[C@@H](C(=O)O)[C@H](C2)O3)C(O)C(N)C1O (some centres undefined)
inactive: [3] 105 % of control | [4] 109 % of control | dose: 8.0 mg/kg/injection, vehicle: saline 109 % of control | dose: 16.0 mg/kg/injection, vehicle: saline 124 % of control

O=C(O)CC(=O)O.[NH-]C1CCCCC1[NH-].[Pt+2] (centres undefined)
inactive: dose: 12.5 mg/kg/injection, vehicle: dextrose 117 % of control | dose: 25.0 mg/kg/injection, vehicle: dextrose 88 % of control

COC(=O)CC(N)C(=O)O (centres undefined)
inactive: [5] 115 % of control | [6] 95 % of control | [2] 109 % of control | [7] 100 % of control

Cc1c[nH]c(=O)[nH]c1=O
inactive: dose: 32.0 mg/kg/injection, vehicle: Klucel (hydroxypropylcellulose) (HPC) 104 % of control | dose: 64.0 mg/kg/injection, vehicle: Klucel (hydroxypropylcellulose) (HPC) 114 % of control | dose: 128.0 mg/kg/injection, vehicle: Klucel (hydroxypropylcellulose) (HPC) 93 % of control | dose: 256.0 mg/kg/injection, vehicle: Klucel (hydroxypropylcellulose) (HPC) 101 % of control | dose: 512.0 mg/kg/injection, vehicle: Klucel (hydroxypropylcellulose) (HPC) 92 % of control

Clc1ccc2nnnn2n1
inactive: [8] 102 % of control | dose: 25.0 mg/kg/injection, vehicle: saline with Tween-80 115 % of control | dose: 50.0 mg/kg/injection, vehicle: saline with Tween-80 104 % of control | dose: 100.0 mg/kg/injection, vehicle: saline with Tween-80 98 % of control | dose: 200.0 mg/kg/injection, vehicle: saline with Tween-80 108 % of control
